Results: patent US11272841B2, “Indicator fluids, systems, and methods for assessing movement of substances within, to or from a cerebrospinal fluid, brain or spinal cord compartment of a cranio-spinal cavity of a human” (BRAINWIDESOLUTIONS AS, priority 2017, dated 2022)
“And” between values parts separate entries of the source, which are not always exact repeats. Equal entries are not always repeated. Marks after values point to notes of the source that are not given here.

Assay: Repeated standardized T1-weighted MRI: signal units (SU) in ROIs of CSF, venous space and brain tissue after intrathecal gadobutrol, iNPH versus reference patients (Tables 2-4, FIG. 14b, 16);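 on Max Increase in SU of T1 signal, numerical change: Gadobutrol 0.5 mL of 1.0 mmol/mL given intrathecally into CSF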;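 on Max Increase in SU of T1 signal, percentage change: Gadobutrol 0.5 mL of 1.0 mmol/mL given intrathecally into CSF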
Type: in vivo, human
Settings: for Max Increase in SU of T1 signal, numerical change / Max Increase in SU of T1 signal, percentage change: one patient per row; for Average indication signal within brain tissue ROI: one individual, FIG. 14b
Method: The different features of Aspect 2 are based on novel in-vivo observations in humans. […] In the following paragraphs, these novel observations in humans are commented on in more detail. In these studies, the MRI contrast agent gadobutrol served as indicator fluid and MRI SUs were indication signals. MRI T1 weighted signal units were measured when gadobutrol was present within CSF after having been administered to the CSF compartment, and were compared with MR images having identical sequence parameter settings and with no gadobutrol present in CSF. […] With a MW of 605 Da, gadobutrol is a rather large molecule in comparison to the MW of water (H2O) molecule, which is 18 Da. Clearance of gadobutrol is then indicative of clearance of other substances with similar properties.
We explored both movement of the contrast agent within, to, and from the cranio-spinal cavity, including CSF, brain and spinal cord compartment, and from the cranio-spinal cavity to extra-cranial LNs. With gadobutrol present within CSF, blood level concentrations of contrast agents were determined at various time point. The repeated MRI acquisitions made it possible to create clearance curves for one or more pixels, defined by ROIs. ROIs were placed within CSF compartments, brain and spinal cord tissue compartments, and extracranial LN tissue compartments. By means of MRI, we could create graphic curves illustrating clearance of substances (clearance illustrating curves) for defined ROIs built up of a defied number of pixels for each individual. For details of said clearance curves, see FIG. 7. The establishment of clearance curves was dependent on repeated MRI acquisitions over a long period.
Using MRI SUs, we created clearance illustrating curves, see FIG. 7, for the individual patients as well as for groups of individuals. Tables 2-4 illustrate various examples of parameter values of the clearance illustrating curves.
Table 2, as discussed with FIG. 2, illustrates how maximum increase in SUs varies between individuals and patient groups. Tables 3 and 4 compare such clearance curve parameters from two patient groups, namely iNPH and reference (i.e. control) patients, illustrating inter-individual differences and differences between patient groups. These patient groups represent no limitation of the invention as it may be used in various patient groups such as Alzheimer's and dementia in general, brain tumor (e.g. astrocytoma), multiple sclerosis and inflammatory brain disease, stroke (brain infarction or bleeds), sleep disturbances, neurodegenerative disease, CSF circulation disorders, traumatic brain injury, neurometabolic diseases, glaucoma, chronic headache and migraine, and in assessment of ageing in general.
Even though perfect match of ROIs of repeated images may be difficult to obtain, the second aspect of the invention is facilitated by that image acquisition parameters at repeated MRI acquisitions are kept fixed and thus standardized. […] Further, to make best possible alignments of pixels, methods for alignment of repeated MRI acquisitions need to be implemented. Methods for alignment of repeated MRI images belong to prior art. Aids to improve alignment may incorporate landmark locations such as the cranial vault, pineal gland, and ventricular system.
Each image acquisition lasted 6 minutes and 29 seconds.

[1] = CSF space: Lateral Ventricle, iNPH
[2] = CSF space: Precentral sulcus, Reference
[3] = CSF space: Precentral sulcus, iNPH
[4] = CSF space: Sylvian fissure, Reference
[5] = CSF space: Sylvian fissure, iNPH
[6] = Central venous space: Sagittal sinus/confluence, Reference
[7] = Central venous space: Sagittal sinus/confluence, iNPH
[8] = Inferior frontal gyrus (IFG), REF
[9] = Inferior frontal gyrus (IFG), iNPH

Clearance coefficient (SU/min) [1]: −0.05 ± 0.04 SU/min
Clearance time [1]: 1115.1 ± 46.3 min
Enhancement coefficient (SU/min) [1]: 0.41 SU/min
Max increase (SU) [1]: 168.5 ± 99.8^b SU
Max reduction (SU) [1]: −57.3 ± 48.9 SU
Time to peak [1]: 843.4 ± 560.2 min
Clearance coefficient (SU/min) (CSF space: Pons, Reference): −0.25 ± 0.08 SU/min
Clearance time (CSF space: Pons, Reference): 1261.5 ± 137.0 min
Enhancement coefficient (SU/min) (CSF space: Pons, Reference): 10.8 SU/min
Max reduction (SU) (CSF space: Pons, Reference): −313.3 ± 105.3 SU
Time to peak (CSF space: Pons, Reference): 159.8 ± 148.9 min
Clearance coefficient (SU/min) (CSF space: Pons, iNPH): −0.15 ± 0.08^b SU/min
Clearance time (CSF space: Pons, iNPH): 1207.9 ± 114.8 min
Enhancement coefficient (SU/min) (CSF space: Pons, iNPH): 2.4 SU/min
Max reduction (SU) (CSF space: Pons, iNPH): −177.9 ± 95.5^b SU
Time to peak (CSF space: Pons, iNPH): 230.9 ± 98.4 min
Enhancement coefficient (SU/min) [2]: 0.29 SU/min
Max increase (SU) [2]: 87.8 ± 99.3 SU
Time to peak [2]: 475.0 ± 601.9 min
Enhancement coefficient (SU/min) [3]: 0.10 SU/min
Max increase (SU) [3]: 131.1 ± 94.1 SU
Time to peak (min) [3]: 1254.7 ± 483.8^b min
Clearance coefficient (SU/min) [4]: −0.12 ± 0.06 SU/min
Clearance time [4]: 1162.6 ± 78.1 min
Enhancement coefficient (SU/min) [4]: 0.9 SU/min
Max increase (SU) [4]: 204.2 ± 104.4 SU
Max reduction (SU) [4]: −133.0 ± 68.4 SU
Time to peak [4]: 258.6 ± 114.8 min
Clearance coefficient (SU/min) [5]: −0.06 ± 0.05^a SU/min
Clearance time [5]: 1123.7 ± 41.1 min
Enhancement coefficient (SU/min) [5]: 0.57 SU/min
Max increase (SU) [5]: 226.2 ± 100.2 SU
Max reduction (SU) [5]: −68.0 ± 51.2^a SU
Time to peak (min) [5]: 689.0 ± 536.3^a min
Clearance coefficient (SU/min) [6]: −0.008 ± 0.003 SU/min
Clearance time [6]: 1247.3 ± 175.9 min
Enhancement coefficient (SU/min) [6]: 0.41 SU/min
Max increase (SU) [6]: 7.4 ± 9.6 SU
Max reduction (SU) [6]: −9.5 ± 3.9 SU
Time to peak [6]: 524.4 ± 591.3 min
Clearance coefficient (SU/min) [7]: −0.01 ± 0.006 SU/min
Clearance time [7]: 1287.4 ± 150.9 min
Enhancement coefficient (SU/min) [7]: 0.16 SU/min
Max increase (SU) [7]: 8.1 ± 8.0 SU
Max reduction (SU) [7]: −12.1 ± 6.7 SU
Time to peak [7]: 350.2 ± 457.3 min
SU within ROI (entorhinal cortex, FIG. 16h, intrathecal gadobutrol present for 24 hours (46 SU without)): 136 SU
Average indication signal within brain tissue ROI (3 hours after intrathecal gadobutrol (80 SU without gadobutrol)): 83 SU
Average indication signal within brain tissue ROI (9 hours after intrathecal gadobutrol): 103 SU
Average indication signal within brain tissue ROI (24 hours after intrathecal gadobutrol): 107 SU
SU within ROI (subcortical area of entorhinal cortex, FIG. 16f, intrathecal gadobutrol present for 24 hours (109 SU without)): 180 SU
SMILES: O=C([O-])CN1CCN(CC(=O)[O-])CCN([C@H](CO)[C@H](O)CO)CCN(CC(=O)[O-])CC1.[Gd+3] (racemic) [gadobutrol]
Max Increase in SU of T1 signal, numerical change (Frontal horn, REF): 23 SU and 7 (7%) SU and 4 SU and 4 (4%) SU and 3 (3%) SU and 9 SU and 17 SU
Max Increase in SU of T1 signal, percentage change (Frontal horn, REF): 37% and 7 (7%) and 3% and 4 (4%) and 3 (3%) and 8% and 21%
Max Increase in SU of T1 signal, numerical change (Frontal horn, iNPH): 13 SU and 103 SU and 35 SU and 76 SU and 92 SU and 50 SU and 2 (2%) SU and 49 SU and 53 SU and 42 SU and 8 SU and 19 SU and 21 SU
Max Increase in SU of T1 signal, percentage change (Frontal horn, iNPH): 15% (2×) and 204% and 40% and 159% and 131% and 98% and 2 (2%) and 126% and 110% and 70% and 22% and 23%
Max Increase in SU of T1 signal, numerical change [8]: 68 SU and 5 (5%) SU and 24 SU and 13 SU and 23 SU and 37 SU and 18 SU
Max Increase in SU of T1 signal, percentage change [8]: 80% and 5 (5%) and 27% and 14% and 25% and 41% and 21%
Max Increase in SU of T1 signal, numerical change [9]: 70 SU and 56 SU and 32 SU and 51 SU and 74 SU and 21 SU and 24 SU and 36 SU and 59 SU and 10 SU (2×) and −1 (−1%) SU and 25 SU
Max Increase in SU of T1 signal, percentage change [9]: 83% and 68% (2×) and 38% and 63% and 95% and 23% and 31% and 46% and 12% and −1 (−1%) and 11% and 28%
Max Increase in SU of T1 signal, numerical change (Precentral gyrus, REF): 10 SU and 1 (1%) SU and 8 SU and 2 (2%) SU and 6 SU and 34 SU and 3 SU
Max Increase in SU of T1 signal, percentage change (Precentral gyrus, REF): 12% and 1 (1%) and 9% and 2 (2%) and 7% and 41% and 4%
Max Increase in SU of T1 signal, numerical change (Precentral gyrus, iNPH): 28 SU and 7 SU and 7 (7%) SU and 2 (2%) SU (2×) and 18 SU and 5 (5%) SU and 8 SU and 2 SU and 6 SU (2×) and 4 SU and 3 SU
Max Increase in SU of T1 signal, percentage change (Precentral gyrus, iNPH): 32% and 8% and 7 (7%) and 2 (2%) (2×) and 22% and 5 (5%) and 10% and 3% and 7% (2×) and 5% and 4%
Max Increase in SU of T1 signal, numerical change (Thalamus, REF): 23 SU and 4 (4%) SU and 3 SU and 2 (2%) SU and 13 (13%) SU (2×) and 8 SU
Max Increase in SU of T1 signal, percentage change (Thalamus, REF): 26% and 4 (4%) and 2% and 2 (2%) and 13 (13%) (2×) and 9%
Max Increase in SU of T1 signal, numerical change (Thalamus, iNPH): 16 SU and 23 SU and 9 SU (2×) and 14 SU and 25 SU and 4 (4%) SU and 10 SU and 19 SU and 7 SU and 2 (2%) SU and 12 SU (2×)
Max Increase in SU of T1 signal, percentage change (Thalamus, iNPH): 18% and 24% and 11% (2×) and 17% and 28% and 4 (4%) and 12% and 21% and 8% and 2 (2%) and 14% and 13%
Max Increase in SU of T1 signal, numerical change (brain tissue Pons, REF): 20 SU and 5 (5%) SU (2×) and 3 (3%) SU and 9 (9%) SU and 7 (7%) SU and 9 SU
Max Increase in SU of T1 signal, percentage change (brain tissue Pons, REF): 21% and 5 (5%) (2×) and 3 (3%) and 9 (9%) and 7 (7%) and 10%
Max Increase in SU of T1 signal, numerical change (brain tissue Pons, iNPH): 17 (17%) SU and 24 (24%) SU and 15 SU and 21 SU and 14 (14%) SU and 4 (4%) SU (2×) and 9 SU (2×) and 18 (18%) SU and 3 (3%) SU and 2 (2%) SU and 6 (6%) SU
Max Increase in SU of T1 signal, percentage change (brain tissue Pons, iNPH): 17 (17%) and 24 (24%) and 16% and 24% and 14 (14%) and 4 (4%) (2×) and 10% (2×) and 18 (18%) and 3 (3%) and 2 (2%) and 6 (6%)
